Each block holds one compound with its values, some of them ahead of it.
Columns and labels:
[1] = molecular target: T1, Serine/threonine-protein kinase TAO1 (Homo sapiens) (UniProt Q7L7X3); assay: Selectivity interaction (KinomeScan (DiscoverX)) EUB0000229b TAOK1; details: at 10 µM
T1 sequence (whole entry): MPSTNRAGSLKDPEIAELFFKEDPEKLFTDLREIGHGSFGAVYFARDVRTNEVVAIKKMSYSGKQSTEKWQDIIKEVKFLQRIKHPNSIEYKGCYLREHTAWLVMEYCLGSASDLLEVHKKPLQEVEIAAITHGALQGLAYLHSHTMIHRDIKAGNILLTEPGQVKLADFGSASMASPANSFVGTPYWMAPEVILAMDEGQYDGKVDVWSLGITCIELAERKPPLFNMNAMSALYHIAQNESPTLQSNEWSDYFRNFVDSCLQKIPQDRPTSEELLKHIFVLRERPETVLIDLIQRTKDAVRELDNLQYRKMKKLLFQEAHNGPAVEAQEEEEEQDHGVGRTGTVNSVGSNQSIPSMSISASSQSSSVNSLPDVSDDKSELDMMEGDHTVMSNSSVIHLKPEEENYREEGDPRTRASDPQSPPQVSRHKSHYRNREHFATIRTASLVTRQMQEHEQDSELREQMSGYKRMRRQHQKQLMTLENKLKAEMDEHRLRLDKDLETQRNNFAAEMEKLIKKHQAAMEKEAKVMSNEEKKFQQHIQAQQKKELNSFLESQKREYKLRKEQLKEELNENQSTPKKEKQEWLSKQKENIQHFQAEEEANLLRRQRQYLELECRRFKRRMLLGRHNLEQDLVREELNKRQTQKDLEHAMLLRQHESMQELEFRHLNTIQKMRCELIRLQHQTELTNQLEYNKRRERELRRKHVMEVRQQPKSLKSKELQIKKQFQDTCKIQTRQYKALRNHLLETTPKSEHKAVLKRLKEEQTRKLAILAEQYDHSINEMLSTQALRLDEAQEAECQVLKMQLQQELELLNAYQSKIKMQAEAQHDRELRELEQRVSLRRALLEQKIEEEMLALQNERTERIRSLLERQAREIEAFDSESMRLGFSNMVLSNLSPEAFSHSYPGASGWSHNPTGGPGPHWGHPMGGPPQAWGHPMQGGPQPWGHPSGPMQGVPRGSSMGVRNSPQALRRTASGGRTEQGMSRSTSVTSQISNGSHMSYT

[2] = molecular target: Serine/threonine-protein kinase PAK 1 (Homo sapiens) (UniProt Q13153); assay: Selectivity interaction (Kinase panel (Eurofins)) EUB0001564a PAK1; details: at 1 µM
Sequence of Serine/threonine-protein kinase PAK 1 (Homo sapiens) (Q13153 whole entry): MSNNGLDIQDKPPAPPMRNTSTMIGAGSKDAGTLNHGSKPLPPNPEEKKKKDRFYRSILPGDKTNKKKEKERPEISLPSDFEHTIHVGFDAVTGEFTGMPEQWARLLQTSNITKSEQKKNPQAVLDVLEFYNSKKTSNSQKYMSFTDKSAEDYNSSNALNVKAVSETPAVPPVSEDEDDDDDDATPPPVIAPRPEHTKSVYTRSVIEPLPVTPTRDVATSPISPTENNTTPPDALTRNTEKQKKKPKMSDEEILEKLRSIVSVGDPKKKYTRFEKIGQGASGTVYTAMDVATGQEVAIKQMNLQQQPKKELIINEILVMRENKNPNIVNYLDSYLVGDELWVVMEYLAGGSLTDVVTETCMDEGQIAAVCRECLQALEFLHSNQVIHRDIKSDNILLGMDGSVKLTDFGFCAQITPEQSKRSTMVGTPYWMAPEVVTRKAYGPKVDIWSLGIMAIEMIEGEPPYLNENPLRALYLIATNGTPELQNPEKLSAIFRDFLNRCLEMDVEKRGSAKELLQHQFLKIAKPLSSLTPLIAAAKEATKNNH

[3] = molecular target: Tyrosine-protein kinase CSK (Homo sapiens) (UniProt P41240); assay: Selectivity interaction (KinomeScan (DiscoverX)) EUB0000045b CSK
Sequence of Tyrosine-protein kinase CSK (Homo sapiens) (P41240 2-450 limits assumed): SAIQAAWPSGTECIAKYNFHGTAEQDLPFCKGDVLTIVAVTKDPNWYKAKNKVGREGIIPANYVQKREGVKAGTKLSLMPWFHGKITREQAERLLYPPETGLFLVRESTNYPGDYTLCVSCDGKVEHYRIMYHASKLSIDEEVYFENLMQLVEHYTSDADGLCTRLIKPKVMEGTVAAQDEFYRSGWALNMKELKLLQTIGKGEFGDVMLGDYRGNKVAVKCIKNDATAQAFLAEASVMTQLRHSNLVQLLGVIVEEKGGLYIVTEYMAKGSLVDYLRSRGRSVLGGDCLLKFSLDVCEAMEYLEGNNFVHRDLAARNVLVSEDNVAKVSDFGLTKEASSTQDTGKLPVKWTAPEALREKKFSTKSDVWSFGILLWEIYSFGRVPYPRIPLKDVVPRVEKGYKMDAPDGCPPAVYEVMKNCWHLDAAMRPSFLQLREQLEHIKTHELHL

[4] = molecular target: T2, Ephrin type-B receptor 3 (Homo sapiens) (UniProt P54753); assay: Selectivity interaction (KinomeScan (DiscoverX)) EUB0000607a EPHB3; details: at 10 µM
T2 sequence (whole entry): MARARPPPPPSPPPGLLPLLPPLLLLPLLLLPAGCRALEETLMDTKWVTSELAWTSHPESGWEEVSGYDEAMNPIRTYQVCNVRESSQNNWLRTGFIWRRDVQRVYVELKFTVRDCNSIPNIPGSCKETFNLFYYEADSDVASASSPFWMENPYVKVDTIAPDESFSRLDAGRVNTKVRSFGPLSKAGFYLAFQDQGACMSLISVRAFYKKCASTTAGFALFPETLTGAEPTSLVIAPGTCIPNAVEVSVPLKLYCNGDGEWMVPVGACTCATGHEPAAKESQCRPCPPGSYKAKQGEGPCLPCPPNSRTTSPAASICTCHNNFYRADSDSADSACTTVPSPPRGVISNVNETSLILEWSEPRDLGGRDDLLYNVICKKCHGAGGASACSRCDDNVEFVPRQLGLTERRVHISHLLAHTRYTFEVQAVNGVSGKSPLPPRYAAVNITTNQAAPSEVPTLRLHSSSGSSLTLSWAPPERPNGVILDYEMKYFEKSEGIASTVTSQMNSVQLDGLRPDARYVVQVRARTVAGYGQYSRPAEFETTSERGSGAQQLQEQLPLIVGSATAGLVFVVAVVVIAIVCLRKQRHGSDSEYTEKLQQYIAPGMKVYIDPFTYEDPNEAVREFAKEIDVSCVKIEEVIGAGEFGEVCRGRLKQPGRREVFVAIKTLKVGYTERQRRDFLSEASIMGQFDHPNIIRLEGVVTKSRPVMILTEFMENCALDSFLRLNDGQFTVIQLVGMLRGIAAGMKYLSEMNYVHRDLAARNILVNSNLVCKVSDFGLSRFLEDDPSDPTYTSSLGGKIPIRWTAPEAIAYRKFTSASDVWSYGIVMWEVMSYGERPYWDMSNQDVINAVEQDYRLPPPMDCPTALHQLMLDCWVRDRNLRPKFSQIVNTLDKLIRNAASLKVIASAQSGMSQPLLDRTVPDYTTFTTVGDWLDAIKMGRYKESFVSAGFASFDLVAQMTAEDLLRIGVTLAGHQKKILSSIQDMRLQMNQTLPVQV

[5] = molecular target: Phosphatidylinositol 4-kinase beta (Homo sapiens, UniProt Q9UBF8); assay: Selectivity interaction (Kinase panel (KiNativ target engagement assay in Jurkat cells)) EUB0001635a PI4KB; assay type: cell-based; details: Selectivity number of off-targets 0.0, Selectivity number of targets 233.0, Source Knowledge https://www.sciencedirect.com/science/article/pii/S2451945619300674?via%3Dihub, at 1 µM
Sequence of Phosphatidylinositol 4-kinase beta (Q9UBF8 2-816 limits assumed): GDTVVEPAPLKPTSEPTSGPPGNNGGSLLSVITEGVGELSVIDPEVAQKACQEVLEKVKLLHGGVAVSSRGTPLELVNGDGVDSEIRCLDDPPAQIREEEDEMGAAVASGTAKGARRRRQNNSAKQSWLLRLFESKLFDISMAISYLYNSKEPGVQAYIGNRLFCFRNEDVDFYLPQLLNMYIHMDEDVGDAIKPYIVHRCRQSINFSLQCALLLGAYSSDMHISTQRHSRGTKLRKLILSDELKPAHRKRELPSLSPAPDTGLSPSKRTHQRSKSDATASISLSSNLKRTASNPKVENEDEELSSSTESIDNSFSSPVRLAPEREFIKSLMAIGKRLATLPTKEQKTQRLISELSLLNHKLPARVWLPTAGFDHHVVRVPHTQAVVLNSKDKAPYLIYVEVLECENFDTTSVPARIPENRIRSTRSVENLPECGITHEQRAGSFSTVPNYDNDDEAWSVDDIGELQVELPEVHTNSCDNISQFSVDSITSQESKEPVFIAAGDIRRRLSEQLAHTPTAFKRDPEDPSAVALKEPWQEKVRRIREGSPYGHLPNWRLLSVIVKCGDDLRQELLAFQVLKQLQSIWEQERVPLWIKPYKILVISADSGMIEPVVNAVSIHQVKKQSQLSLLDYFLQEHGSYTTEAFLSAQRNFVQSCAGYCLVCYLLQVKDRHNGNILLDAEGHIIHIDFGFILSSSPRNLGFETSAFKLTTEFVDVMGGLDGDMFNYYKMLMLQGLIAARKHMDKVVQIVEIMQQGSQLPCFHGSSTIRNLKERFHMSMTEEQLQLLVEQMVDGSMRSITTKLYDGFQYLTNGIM

[6] = molecular target: T3, Muscarinic acetylcholine receptor M1 (Homo sapiens) (UniProt P11229); assay: Selectivity interaction (Panel of kinases, GPCRs, ion channels and transporters (enzymatic assay)) EUB0000223bCl CHRM1
T3 sequence (whole entry): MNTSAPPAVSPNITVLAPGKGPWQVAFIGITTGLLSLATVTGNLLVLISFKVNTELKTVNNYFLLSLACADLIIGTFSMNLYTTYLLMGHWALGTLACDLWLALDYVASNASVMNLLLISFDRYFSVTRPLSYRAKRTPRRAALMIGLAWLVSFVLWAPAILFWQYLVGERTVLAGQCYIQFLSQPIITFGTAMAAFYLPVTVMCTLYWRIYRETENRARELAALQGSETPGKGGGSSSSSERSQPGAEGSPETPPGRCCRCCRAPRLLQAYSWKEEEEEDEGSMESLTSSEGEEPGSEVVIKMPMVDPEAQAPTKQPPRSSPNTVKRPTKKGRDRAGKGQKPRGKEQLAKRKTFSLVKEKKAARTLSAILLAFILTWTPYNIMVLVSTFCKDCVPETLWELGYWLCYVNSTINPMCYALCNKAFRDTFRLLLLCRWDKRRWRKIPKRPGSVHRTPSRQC

Compound: COc1cc(N(C)c2ccnc3ccc(C(F)(F)F)cc23)cc(OC)c1OC
- % binding [1]: 65%

- % of inhibition [2]: 23.8%
Compound: CC[C@@H](Nc1c(C#N)c(-c2ccc(-c3cccc(C)c3F)cc2)nc2cnccc12)C(=O)O [BAY-091]

Compound: C=CC(=O)Nc1cc(-n2c(=O)ccc3cnc4ccc(-c5ccc(NS(C)(=O)=O)cc5)cc4c32)ccc1C
- % of control ([3]; at 1 µM): 99%
- % of control ([3]; at 10 µM): 75%

Compound: CNC(=O)Nc1ccc(-c2nc(N3CC4CCC(C3)O4)c3cnn(C4CCC5(CC4)OCCO5)c3n2)cc1
- % of control [4]: 92%

Compound: C=CC(=O)Nc1ccc(C(=O)Nc2[nH]nc3c2CN(C(=O)N[C@H](CN(C)C)c2ccccc2)C3(C)C)cc1
- % of engagement [5]: -4.1%

Compound: COc1cc(C(=O)N2CC[C@@H](O)[C@@H](N)C2)cc2nc(-c3cc4ccccc4n3CC3CC3)n(C)c12
- pXC50 [6]: 5.3 M

Reference: ChEMBL document CHEMBL5465560, “Selectivity Literature for EUbOPEN Chemogenomic Library” (2024)
